Reference: patent publication US9980943B2, “Methods of treating muscular dystrophy” (BOARD OF REGENTS OF THE NEVADA SYSTEM OF HIGHER EDUCATION, …, priority 2013, dated 2018)

Experiments:
Assay type in all cases: cell-based, mouse
[1] = test system: α7 integrin (LacZ reporter in α7βgal+/− myoblasts); assay: Myoblast α7+/LacZ integrin FDG assay (Burkin assay in myoblasts, 96-well); conditions: SU9516 analogs, 96-well, N=3-6
[2] = test system: α7 integrin (LacZ reporter in α7+/LacZ myotubes); assay: Myotube α7 integrin FDG assay (Burkin assay in myotubes, 96-well); conditions: SU9516 analogs, 96-well, N=3-6
[3] = test system: β-galactosidase in CMV-LacZ C2C12 myoblasts; assay: CMV-LacZ secondary screen in C2C12 myoblasts (β-Gal stabilizing assay); conditions: SU9516 analogs, C2C12 CMV-LacZ, N=2
Method in brief: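 Dose-response runs at 0.5–40 μM (0.5, 1, 5, 10, 20, 40 μM; N=2 per point) used a clonal C2C12 line carrying CMV-LacZ. Cells were assayed as myoblasts or as differentiated myotubes, and β-galactosidase levels were read with the FDG fluorogenic substrate.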

[4] = test system: β-galactosidase in CMV-LacZ C2C12 myotubes; assay: CMV-LacZ secondary screen in C2C12 myotubes (β-Gal stabilizing assay); conditions: SU9516 analogs, C2C12 CMV-LacZ, N=2
Method in brief: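 First, C2C12 myoblasts were transfected with a linearized CMV-LACZ vector and clonal lines selected by FDG β-gal assay. Then cells were exposed to compounds at 0.5, 1, 5, 10, 20 and 40 μM in 96-well format, two replicates each, and β-gal measured.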

## O=Nc1c(-c2c(O)[nH]c3cc(Br)ccc23)[nH]c2ccccc12 [NCGC00094112-04]
[1]; 0.5 uM
  Burkin Assay in Myoblasts, value relative to DMSO: 1.019
[1]; 1 uM
  Burkin Assay in Myoblasts, value relative to DMSO: 0.9927
[1]; 5 uM
  Burkin Assay in Myoblasts, value relative to DMSO: 0.5722
[1]; 10 uM
  Burkin Assay in Myoblasts, value relative to DMSO: 0.4943
[1]; 20 uM
  Burkin Assay in Myoblasts, value relative to DMSO: 0.4509
[1]; 40 uM
  Burkin Assay in Myoblasts, value relative to DMSO: 0.3428
[2]; 0.5 uM
  Burkin Assay in Myotubes, value relative to DMSO: 0.7402
[2]; 1 uM
  Burkin Assay in Myotubes, value relative to DMSO: 0.8159
[2]; 5 uM
  Burkin Assay in Myotubes, value relative to DMSO: 0.7596
[2]; 10 uM
  Burkin Assay in Myotubes, value relative to DMSO: 0.629
[2]; 20 uM
  Burkin Assay in Myotubes, value relative to DMSO: 0.6813
[2]; 40 uM
  Burkin Assay in Myotubes, value relative to DMSO: 0.35
[3]; 0.5 uM
  CMV-LACZ in Myoblasts, value relative to DMSO: 1.1721
[3]; 1 uM
  CMV-LACZ in Myoblasts, value relative to DMSO: 1.1779
[3]; 5 uM
  CMV-LACZ in Myoblasts, value relative to DMSO: 1.0309
[3]; 10 uM
  CMV-LACZ in Myoblasts, value relative to DMSO: 1.0782
[3]; 20 uM
  CMV-LACZ in Myoblasts, value relative to DMSO: 0.4403
[3]; 40 uM
  CMV-LACZ in Myoblasts, value relative to DMSO: 0.3627
[4]; 0.5 uM
  CMV-LACZ in Myotubes, value relative to DMSO: 1.0409
[4]; 1 uM
  CMV-LACZ in Myotubes, value relative to DMSO: 0.8864
[4]; 5 uM
  CMV-LACZ in Myotubes, value relative to DMSO: 0.8123
[4]; 10 uM
  CMV-LACZ in Myotubes, value relative to DMSO: 0.7933
[4]; 20 uM
  CMV-LACZ in Myotubes, value relative to DMSO: 0.7190
[4]; 40 uM
  CMV-LACZ in Myotubes, value relative to DMSO: 0.5420

## Cc1cc(C)c(/C=C2\C(=O)Nc3ccccc32)[nH]1 [NCGC00094381-03]
[1]; 0.5 uM
  Burkin Assay in Myoblasts, value relative to DMSO: 0.9368
[1]; 1 uM
  Burkin Assay in Myoblasts, value relative to DMSO: 0.9952
[1]; 5 uM
  Burkin Assay in Myoblasts, value relative to DMSO: 0.7327
[1]; 10 uM
  Burkin Assay in Myoblasts, value relative to DMSO: 0.6579
[1]; 20 uM
  Burkin Assay in Myoblasts, value relative to DMSO: 0.6668
[1]; 40 uM
  Burkin Assay in Myoblasts, value relative to DMSO: 0.5203
[2]; 0.5 uM
  Burkin Assay in Myotubes, value relative to DMSO: 0.8564
[2]; 1 uM
  Burkin Assay in Myotubes, value relative to DMSO: 0.9334
[2]; 5 uM
  Burkin Assay in Myotubes, value relative to DMSO: 0.9015
[2]; 10 uM
  Burkin Assay in Myotubes, value relative to DMSO: 1.024
[2]; 20 uM
  Burkin Assay in Myotubes, value relative to DMSO: 0.9497
[2]; 40 uM
  Burkin Assay in Myotubes, value relative to DMSO: 1.151
[3]; 0.5 uM
  CMV-LACZ in Myoblasts, value relative to DMSO: 0.9504
[3]; 5 uM
  CMV-LACZ in Myoblasts, value relative to DMSO: 0.8667
[3]; 10 uM
  CMV-LACZ in Myoblasts, value relative to DMSO: 1.0089
[3]; 20 uM
  CMV-LACZ in Myoblasts, value relative to DMSO: 0.7777
[3]; 40 uM
  CMV-LACZ in Myoblasts, value relative to DMSO: 1.0253
[4]; 0.5 uM
  CMV-LACZ in Myotubes, value relative to DMSO: 0.9227
[4]; 1 uM
  CMV-LACZ in Myotubes, value relative to DMSO: 1.2227
[4]; 5 uM
  CMV-LACZ in Myotubes, value relative to DMSO: 1.1125
[4]; 10 uM
  CMV-LACZ in Myotubes, value relative to DMSO: 1.5444
[4]; 20 uM
  CMV-LACZ in Myotubes, value relative to DMSO: 10.9800
[4]; 40 uM
  CMV-LACZ in Myotubes, value relative to DMSO: 18.6030

## Cc1cc(C)c(/C=C2\C(=O)Nc3ccccc32)[nH]1 [NCGC00094381-05]
[1]; 0.5 uM
  Burkin Assay in Myoblasts, value relative to DMSO: 0.9433
[1]; 1 uM
  Burkin Assay in Myoblasts, value relative to DMSO: 0.9804
[1]; 5 uM
  Burkin Assay in Myoblasts, value relative to DMSO: 0.7532
[1]; 10 uM
  Burkin Assay in Myoblasts, value relative to DMSO: 0.7145
[1]; 20 uM
  Burkin Assay in Myoblasts, value relative to DMSO: 0.8879
[1]; 40 uM
  Burkin Assay in Myoblasts, value relative to DMSO: 0.7578
[2]; 0.5 uM
  Burkin Assay in Myotubes, value relative to DMSO: 0.9234
[2]; 1 uM
  Burkin Assay in Myotubes, value relative to DMSO: 0.931
[2]; 5 uM
  Burkin Assay in Myotubes, value relative to DMSO: 1.047
[2]; 10 uM
  Burkin Assay in Myotubes, value relative to DMSO: 1.319
[2]; 20 uM
  Burkin Assay in Myotubes, value relative to DMSO: 1.05
[2]; 40 uM
  Burkin Assay in Myotubes, value relative to DMSO: 1.138
[3]; 0.5 uM
  CMV-LACZ in Myoblasts, value relative to DMSO: 0.8383
[3]; 5 uM
  CMV-LACZ in Myoblasts, value relative to DMSO: 0.9614
[3]; 10 uM
  CMV-LACZ in Myoblasts, value relative to DMSO: 0.8606
[3]; 20 uM
  CMV-LACZ in Myoblasts, value relative to DMSO: 0.7147
[3]; 40 uM
  CMV-LACZ in Myoblasts, value relative to DMSO: 0.8220
[4]; 0.5 uM
  CMV-LACZ in Myotubes, value relative to DMSO: 1.0045
[4]; 1 uM
  CMV-LACZ in Myotubes, value relative to DMSO: 0.8773
[4]; 5 uM
  CMV-LACZ in Myotubes, value relative to DMSO: 1.2069
[4]; 10 uM
  CMV-LACZ in Myotubes, value relative to DMSO: 2.8305
[4]; 20 uM
  CMV-LACZ in Myotubes, value relative to DMSO: 6.8950
[4]; 40 uM
  CMV-LACZ in Myotubes, value relative to DMSO: 18.0610

## CCN(CC)CCNC(=O)c1c(C)[nH]c(/C=C2\C(=O)Nc3ccc(F)cc32)c1C [NCGC00164631-03]
[1]; 0.5 uM
  Burkin Assay in Myoblasts, value relative to DMSO: 0.8373
[1]; 1 uM
  Burkin Assay in Myoblasts, value relative to DMSO: 1.032
[1]; 5 uM
  Burkin Assay in Myoblasts, value relative to DMSO: 0.3224
[1]; 10 uM
  Burkin Assay in Myoblasts, value relative to DMSO: 0.01373
[1]; 20 uM
  Burkin Assay in Myoblasts, value relative to DMSO: 0.01408
[1]; 40 uM
  Burkin Assay in Myoblasts, value relative to DMSO: 0.01283
[2]; 0.5 uM
  Burkin Assay in Myotubes, value relative to DMSO: 0.9512
[2]; 1 uM
  Burkin Assay in Myotubes, value relative to DMSO: 0.9445
[2]; 5 uM
  Burkin Assay in Myotubes, value relative to DMSO: 0.5505
[2]; 10 uM
  Burkin Assay in Myotubes, value relative to DMSO: 0.1881
[2]; 20 uM
  Burkin Assay in Myotubes, value relative to DMSO: 0.09031
[2]; 40 uM
  Burkin Assay in Myotubes, value relative to DMSO: 0.07758
[3]; 0.5 uM
  CMV-LACZ in Myoblasts, value relative to DMSO: 0.8658
[3]; 5 uM
  CMV-LACZ in Myoblasts, value relative to DMSO: 0.7817
[3]; 10 uM
  CMV-LACZ in Myoblasts, value relative to DMSO: 0.2763
[3]; 20 uM
  CMV-LACZ in Myoblasts, value relative to DMSO: 0.1830
[3]; 40 uM
  CMV-LACZ in Myoblasts, value relative to DMSO: 0.1767
[4]; 0.5 uM
  CMV-LACZ in Myotubes, value relative to DMSO: 1.2682
[4]; 1 uM
  CMV-LACZ in Myotubes, value relative to DMSO: 1.2736
[4]; 5 uM
  CMV-LACZ in Myotubes, value relative to DMSO: 0.8420
[4]; 10 uM
  CMV-LACZ in Myotubes, value relative to DMSO: 0.3964
[4]; 20 uM
  CMV-LACZ in Myotubes, value relative to DMSO: 0.6690
[4]; 40 uM
  CMV-LACZ in Myotubes, value relative to DMSO: 0.7680
